{"source": "patent US10889620B2", "about": "“Solid state forms of linaclotide” (NOVETIDE LTD., priority 2015, dated 2021)", "key": {"[1]": {"settings": "storage for 3 months; 40° C. and 75% relative humidity; from U.S. Pat. No. 8,222,201, Example 3, Table 13; cited from earlier work"}, "[2]": {"experiment": "Stability test of solid Linaclotide forms, storage in sealed HDPE bottles at 40° C. and 75% relative humidity, hydrolysis product content", "assay_type": "physicochemical", "settings": "sealed 45 cc. HDPE bottles", "method": "Linaclotide Form III according to the present invention was subjected to a stability test in accordance with U.S. Pat. No. 8,222,201, Example 3 (storage in sealed 45 cc. high density polyethylene bottles at 40° C. and 75% relative humidity)."}, "[3]": {"experiment": "Stability of Linaclotide solutions with and without ethanol, % multimers by HPLC-SEC", "assay_type": "physicochemical", "settings": "RT, sealed vials", "method": "Solutions of Linaclotide in: (A): a 1:1 mixture of 0.2% AcOH: ACN or (B): a 1:1:9.5 mixture of 0.2% AcOH:ACN:EtOH, were stored for 12 days at room temperature (RT) in sealed vials. The solutions were analysed by (HPLC-size exclusion chromatography) (HPLC-SEC), for % multimers (the major degradants present) content (see table below):\nThe results are graphically represented in FIG. 6."}}, "note": "Bridge positions count the residues as written; N and C are the ends. Peptide text beside a SMILES is read from it.", "data": [{"compound": "C[C@@H]1NC(=O)[C@@H]2CCCN2C(=O)[C@H](CC(N)=O)NC(=O)[C@@H]2CSSC[C@H](N)C(=O)N[C@H]3CSSC[C@H](NC1=O)C(=O)N[C@@H]([C@@H](C)O)C(=O)NCC(=O)N[C@H](C(=O)N[C@@H](Cc1ccc(O)cc1)C(=O)O)CSSC[C@H](NC(=O)[C@H](Cc1ccc(O)cc1)NC(=O)[C@H](CCC(=O)O)NC3=O)C(=O)N2", "note": "[Form alpha, Linaclotide] (H-CCEYCCNPACTGCY-OH; disulfide 1-6, 2-10, 5-13)", "values": [{"measurement": "hydrolysis product (L-Asp Linaclotide impurity) content", "setting": "[1]", "result": 5.7, "unit": "wt %"}]}, {"compound": "C[C@@H]1NC(=O)[C@@H]2CCCN2C(=O)[C@H](CC(N)=O)NC(=O)[C@@H]2CSSC[C@H](N)C(=O)N[C@H]3CSSC[C@H](NC1=O)C(=O)N[C@@H]([C@@H](C)O)C(=O)NCC(=O)N[C@H](C(=O)N[C@@H](Cc1ccc(O)cc1)C(=O)O)CSSC[C@H](NC(=O)[C@H](Cc1ccc(O)cc1)NC(=O)[C@H](CCC(=O)O)NC3=O)C(=O)N2", "note": "[Linaclotide Form III, Linaclotide] (H-CCEYCCNPACTGCY-OH; disulfide 1-6, 2-10, 5-13)", "values": [{"measurement": "Linaclotide hydrolysis product (L-Asp Linaclotide impurity) content", "setting": "[2]; after 4 weeks", "result": 0.22, "unit": "%"}, {"measurement": "Linaclotide hydrolysis product (L-Asp Linaclotide impurity) content", "setting": "[2]; extrapolated to 3 months", "result": 0.45, "unit": "wt %"}]}, {"compound": "C[C@@H]1NC(=O)[C@@H]2CCCN2C(=O)[C@H](CC(N)=O)NC(=O)[C@@H]2CSSC[C@H](N)C(=O)N[C@H]3CSSC[C@H](NC1=O)C(=O)N[C@@H]([C@@H](C)O)C(=O)NCC(=O)N[C@H](C(=O)N[C@@H](Cc1ccc(O)cc1)C(=O)O)CSSC[C@H](NC(=O)[C@H](Cc1ccc(O)cc1)NC(=O)[C@H](CCC(=O)O)NC3=O)C(=O)N2", "note": "[Linaclotide] (H-CCEYCCNPACTGCY-OH; disulfide 1-6, 2-10, 5-13)", "values": [{"measurement": "% Multimers according to HPLC-SEC method", "setting": "[3]; solution (A) without EtOH: 1:1 0.2% AcOH:ACN, Day 0", "result": 1.72, "unit": "%"}, {"measurement": "% Multimers according to HPLC-SEC method", "setting": "[3]; solution (A) without EtOH: 1:1 0.2% AcOH:ACN, Day 1", "result": 1.87, "unit": "%"}, {"measurement": "% Multimers according to HPLC-SEC method", "setting": "[3]; solution (A) without EtOH: 1:1 0.2% AcOH:ACN, Day 2", "result": 1.70, "unit": "%"}, {"measurement": "% Multimers according to HPLC-SEC method", "setting": "[3]; solution (A) without EtOH: 1:1 0.2% AcOH:ACN, Day 5", "result": 3.05, "unit": "%"}, {"measurement": "% Multimers according to HPLC-SEC method", "setting": "[3]; solution (A) without EtOH: 1:1 0.2% AcOH:ACN, Day 6", "result": 3.75, "unit": "%"}, {"measurement": "% Multimers according to HPLC-SEC method", "setting": "[3]; solution (A) without EtOH: 1:1 0.2% AcOH:ACN, Day 7", "result": 3.83, "unit": "%"}, {"measurement": "% Multimers according to HPLC-SEC method", "setting": "[3]; solution (A) without EtOH: 1:1 0.2% AcOH:ACN, Day 8", "result": 4.61, "unit": "%"}, {"measurement": "% Multimers according to HPLC-SEC method", "setting": "[3]; solution (A) without EtOH: 1:1 0.2% AcOH:ACN, Day 11", "result": 6.47, "unit": "%"}, {"measurement": "% Multimers according to HPLC-SEC method", "setting": "[3]; solution (A) without EtOH: 1:1 0.2% AcOH:ACN, Day 12", "result": 7.18, "unit": "%"}, {"measurement": "% Multimers according to HPLC-SEC method", "setting": "[3]; solution (B) with EtOH: 1:1:9.5 0.2% AcOH:ACN:EtOH, Day 0", "result": 1.54, "unit": "%"}, {"measurement": "% Multimers according to HPLC-SEC method", "setting": "[3]; solution (B) with EtOH: 1:1:9.5 0.2% AcOH:ACN:EtOH, Day 1", "result": 1.66, "unit": "%"}, {"measurement": "% Multimers according to HPLC-SEC method", "setting": "[3]; solution (B) with EtOH: 1:1:9.5 0.2% AcOH:ACN:EtOH, Day 2", "result": 2.17, "unit": "%"}, {"measurement": "% Multimers according to HPLC-SEC method", "setting": "[3]; solution (B) with EtOH: 1:1:9.5 0.2% AcOH:ACN:EtOH, Day 5", "result": 2.34, "unit": "%"}, {"measurement": "% Multimers according to HPLC-SEC method", "setting": "[3]; solution (B) with EtOH: 1:1:9.5 0.2% AcOH:ACN:EtOH, Day 6", "result": 3.22, "unit": "%"}, {"measurement": "% Multimers according to HPLC-SEC method", "setting": "[3]; solution (B) with EtOH: 1:1:9.5 0.2% AcOH:ACN:EtOH, Day 7", "result": 3.54, "unit": "%"}, {"measurement": "% Multimers according to HPLC-SEC method", "setting": "[3]; solution (B) with EtOH: 1:1:9.5 0.2% AcOH:ACN:EtOH, Day 8", "result": 3.64, "unit": "%"}, {"measurement": "% Multimers according to HPLC-SEC method", "setting": "[3]; solution (B) with EtOH: 1:1:9.5 0.2% AcOH:ACN:EtOH, Day 11", "result": 3.62, "unit": "%"}, {"measurement": "% Multimers according to HPLC-SEC method", "setting": "[3]; solution (B) with EtOH: 1:1:9.5 0.2% AcOH:ACN:EtOH, Day 12", "result": 4.88, "unit": "%"}]}]}
